Assay results reported in publication PMC10656311, “Evaluation of the probable synergistic toxicity of selected potentiated antiretroviral and antibiotics on some aquatic biomarker organisms” (Environmental Monitoring and Assessment, 2023).
Several values for one entry are separate records, joined by “and”; a condition that tells them apart may be missing. Equal entries are not always repeated. Entries after “also recorded” stand apart in the source; their conditions may differ. Where two headings read alike, the source gives them in different places.

Columns and labels:
[1] = system: Salmonella typhimurium TA100; experiment: Ames mutagenicity test (agar plate method), strain TA100; conditions: for Number of revertant colonies per plate, Mean / Number of revertant colonies per plate, NR 1 / Number of revertant colonies per plate, NR 2 / Number of revertant colonies per plate, NR3 / mutagenic/cytotoxic effect (in words): TA 100; for Number of revertant colonies per plate, NR 1: plate 1; for Number of revertant colonies per plate, NR 2: plate 2; for Number of revertant colonies per plate, NR3: plate 3
Description: The revertant bacteria are detected by their ability to grow in the absence of the amino acid required by the parent test strain. The Ames test method was employed to investigate the potential of a chemical to induce a mutagenic effect in exposed organisms. Three different Salmonella typhimurium bacteria strains ([TA98 P450], [TA100], and [TA100—P450], which simulate metabolic activation) were used in order to account for discrepancies in the way similar organisms (bacteria) may respond to test solutions.
Salmonella typhimurium bacteria were cultured on a freshly prepared nutrient broth medium (Merck, Germany), and allowed to stand overnight. Bacterial growth was confirmed by visual turbidity inspection. […] All experiments were carried out in triplicate. The mutagenicity of the PCs was further classified based on fuzzy logic four-gridded indices (Table 2).
A substance is deemed mutagenic if its mutation rate is twice or more than that of the background.
Salmonella typhimurium bacterial strains TA 98 P450, TA 100, or TA100 P450 were exposed to an equimolar concentration (10 and 100 µg/L) ternary cocktail mixtures of the L, C, and S in the Ames test.

[2] = system: Salmonella typhimurium TA98 P450; format: cell-based; conditions: for Number of revertant colonies per plate, NR 1: plate 1; for Number of revertant colonies per plate, NR 2: plate 2; for Number of revertant colonies per plate, NR3: plate 3
Experimental: (§1) Bacterial growth was confirmed by visual turbidity inspection. […] All experiments were carried out in triplicate.

[3] = system: Salmonella typhimurium TA100 P450; experiment: Ames mutagenicity test (agar plate method), strain TA100 P450; format: cell-based; conditions: for mutagenic/cytotoxic effect (in words) / Number of revertant colonies per plate, Mean: TA100 P450; for Number of revertant colonies per plate, NR 1 / Number of revertant colonies per plate, NR 2 / Number of revertant colonies per plate, NR3: TA 100 P450; for Number of revertant colonies per plate, NR 1: plate 1; for Number of revertant colonies per plate, NR 2: plate 2; for Number of revertant colonies per plate, NR3: plate 3
Experimental: as §1

[4] = system: root tip meristem cells of Allium cepa; experiment: Allium cepa root tip microscopic examination (chromosomal aberrations); format: cell-based; conditions: 100 µg/L; for chromosomal aberrations observed in root tip meristem: light microscopy
Experimental: (§2) Whole-onions test specimens were grown at room temperature (in triplicate). The onions were initially grown for 2 days in tap water. Prior to growing them in tap water, the ring of the root, the primordia at the bottom of the onion bulb, was scraped with a sterile surgical blade to remove all existing root growth. After 2 days of tap water exposure, the lengths of the root fibers of each onion were measured and recorded. This was followed by exposure to the test solutions for another 2 days (tap water was used as the control). […] At the end of the exposure, the onion roots were cut 3 cm from the tip and placed in Carnoy’s fixative solution ([…] (Merck, Germany)) until further microscopic analysis.
This was followed by washing the root tips in distilled water, after which they were stained using Feulgen stain for 2–3 min. The stained root tips were then rinsed in distilled water, transferred onto clean glass microscope slides, and counter-stained with acetocarmine. […] The squashed onion root tips were thereafter imaged using a LEICA DM-750 light microscope at × 400 and × 1000 magnifications.
Microscopic evaluation of Allium cepa cells during mitosis was conducted to ascertain the impacts the L, C, and S test samples (lone and mixtures) will have on the genetic materials of the onion roots at cellular levels.

Daphnia magna = conditions: for Mean mortality (n = 20): five daphnids per well, four replicates
Allium cepa = Allium cepa root length assay (phytotoxic inhibition of root growth); format: in vivo
Experimental: as §2
The test APCs and their mixtures in different combinations were investigated for their phytotoxic characteristics at 10 µg/L and 100 µg/L concentrations, using A. cepa bioassays. The root length assay relies on evaluating the root length of A. cepa as an indicator endpoint to assess the susceptibility of plants exposed to xenobiotics by evaluating physical impacts on their root growth. The ratio between the root length (mm) (RRL) after and before exposure to test solutions ( ^RLAERLBE ) was used as indices for the APCs’ phytotoxicity.

O=C(O)c1cn(C2CC2)c2cc(N3CCNCC3)c(F)cc2c1=O [Ciprofloxacin, ciprofloxacin]
Number of revertant colonies per plate, Mean ([1]; 10 µg/L): 140 | Number of revertant colonies per plate, NR 1 ([1]; 10 µg/L): 140 | Number of revertant colonies per plate, NR 2 ([1]; 10 µg/L): 170 | Number of revertant colonies per plate, NR3 ([1]; 10 µg/L): 110 | Number of revertant colonies per plate, Mean ([1]; 100 µg/L): 140 | mutagenic/cytotoxic effect (in words) ([1]; 100 µg/L): did not individually exert cytotoxicity | Number of revertant colonies per plate, NR 1 ([1]; 100 µg/L): 130 | Number of revertant colonies per plate, NR 2 ([1]; 100 µg/L): 140 | Number of revertant colonies per plate, NR3 ([1]; 100 µg/L): 150 | mutagenic/cytotoxic effect (in words) ([2]; 10 µg/L): did not exert either mutagenic or cytotoxic effects | mutagenic/cytotoxic effect (in words) ([2]; 100 µg/L): to a much lesser extent mutagenic; also recorded: did not individually exert cytotoxicity; also recorded: some level of mutagenic activities | mutagenic/cytotoxic effect (in words) ([3]; 10 µg/L): did not exert either mutagenic or cytotoxic effects | mutagenic/cytotoxic effect (in words) ([3]; 100 µg/L): did not individually exert cytotoxicity | chromosomal aberrations observed in root tip meristem [4]: uncoiling chromosome/irregular prophase | Mean % mortality (Daphnia magna; 10 µg/L, 24 h): 10% | Mean mortality (n = 20) (Daphnia magna; 10 µg/L, 24 h): 0.50 ± 0.58 | Mean % mortality (Daphnia magna; 10 µg/L, 48 h): 55% | Mean mortality (n = 20) (Daphnia magna; 10 µg/L, 48 h): 2.75 ± 0.50 | Mean % mortality (Daphnia magna; 100 µg/L, 24 h): 50% | Mean mortality (n = 20) (Daphnia magna; 100 µg/L, 24 h): 2.5 ± 1.73 | Mean % mortality (Daphnia magna; 100 µg/L, 48 h): 75% | Mean mortality (n = 20) (Daphnia magna; 100 µg/L, 48 h): 3.75 ± 1.26

Nc1ccn([C@@H]2CS[C@H](CO)O2)c(=O)n1 [Lamivudine, lamivudine]
Ames test (mutagenicity) TA 100 [1]: b (key: Toxic (a) x<0.5; No mutagenicity (b) x≥0.5≤1.5; Mutagenic to a lesser extent (c) x>1.5<2.0; Significantly mutagenic (d) x≥2.0) | Number of revertant colonies per plate, Mean ([1]; 10 µg/L): 160 | mutagenic/cytotoxic effect (in words) ([1]; 10 µg/L): did not exert either mutagenic or cytotoxic effects | Number of revertant colonies per plate, NR 1 ([1]; 10 µg/L): 190 | Number of revertant colonies per plate, NR 2 ([1]; 10 µg/L): 150 | Number of revertant colonies per plate, NR3 ([1]; 10 µg/L): 140 | Number of revertant colonies per plate, Mean ([1]; 100 µg/L): 163 | Number of revertant colonies per plate, NR 1 ([1]; 100 µg/L): 180 | Number of revertant colonies per plate, NR 2 ([1]; 100 µg/L): 150 | Number of revertant colonies per plate, NR3 ([1]; 100 µg/L): 160 | Number of revertant colonies per plate, Mean ([2]; 10 µg/L): 16 | mutagenic/cytotoxic effect (in words) ([2]; 10 µg/L): did not exert either mutagenic or cytotoxic effects | Number of revertant colonies per plate, NR 1 ([2]; 10 µg/L): 13 | Number of revertant colonies per plate, NR 2 ([2]; 10 µg/L): 23 | Number of revertant colonies per plate, NR3 ([2]; 10 µg/L): 13 | Number of revertant colonies per plate, Mean ([2]; 100 µg/L): 18 | mutagenic/cytotoxic effect (in words) ([2]; 100 µg/L): to a much lesser extent mutagenic; also recorded: some level of mutagenic activities | Number of revertant colonies per plate, NR 1 ([2]; 100 µg/L): 20 | Number of revertant colonies per plate, NR 2 ([2]; 100 µg/L): 15 | Number of revertant colonies per plate, NR3 ([2]; 100 µg/L): 18 | Number of revertant colonies per plate, Mean ([3]; 10 µg/L): 233 | mutagenic/cytotoxic effect (in words) ([3]; 10 µg/L): did not exert either mutagenic or cytotoxic effects | Number of revertant colonies per plate, NR 1 ([3]; 10 µg/L): 200 | Number of revertant colonies per plate, NR 2 ([3]; 10 µg/L): 200 | Number of revertant colonies per plate, NR3 ([3]; 10 µg/L): 300 | Number of revertant colonies per plate, Mean ([3]; 100 µg/L): 300 | Number of revertant colonies per plate, NR 1 ([3]; 100 µg/L): 210 | Number of revertant colonies per plate, NR 2 ([3]; 100 µg/L): 310 | Number of revertant colonies per plate, NR3 ([3]; 100 µg/L): 380 | A. cepa root exposure C.A (chromosomal aberration) [4]: + | chromosomal aberrations observed in root tip meristem [4]: irregular prophase and metaphase | Mean % mortality (Daphnia magna; 10 µg/L, 24 h): 10% | Mean mortality (n = 20) (Daphnia magna; 10 µg/L, 24 h): 0.50 ± 0.60 | Mean % mortality (Daphnia magna; 10 µg/L, 48 h): 45% | Mean mortality (n = 20) (Daphnia magna; 10 µg/L, 48 h): 2.30 ± 1.00 | Mean % mortality (Daphnia magna; 100 µg/L, 24 h): 85% | Mean mortality (n = 20) (Daphnia magna; 100 µg/L, 24 h): 4.30 ± 1.00 | Mean % mortality (Daphnia magna; 100 µg/L, 48 h): 100% | Mean mortality (n = 20) (Daphnia magna; 100 µg/L, 48 h): 5.00 ± 0.00 | LD50 as log concentration (Daphnia magna; 24 h): 1.533 log conc. (ppb) | LD50 as log concentration (Daphnia magna; 48 h): 1.091 log conc. (ppb) and 1.09 log conc. (ppb) | Toxic unit 24 hrs (Daphnia magna; toxic unit of the constituent in the LCS mixture, 24 h): 1.12 | Toxic unit 48 hrs (Daphnia magna; toxic unit of the constituent in the LCS mixture, 48 h): 1.93 | A. cepa root exposure R.L (Allium cepa; 10 µg/L): - | A. cepa root exposure R.L (Allium cepa; 100 µg/L): +

Cc1cc(NS(=O)(=O)c2ccc(N)cc2)no1 [Sulfamethoxazole, sulfamethoxazole]
Number of revertant colonies per plate, Mean ([1]; 10 µg/L): 123 | Number of revertant colonies per plate, NR 1 ([1]; 10 µg/L): 100 | Number of revertant colonies per plate, NR 2 ([1]; 10 µg/L): 150 | Number of revertant colonies per plate, NR3 ([1]; 10 µg/L): 120 | Number of revertant colonies per plate, Mean ([1]; 100 µg/L): 117 | Number of revertant colonies per plate, NR 1 ([1]; 100 µg/L): 110 | Number of revertant colonies per plate, NR 2 ([1]; 100 µg/L): 110 | Number of revertant colonies per plate, NR3 ([1]; 100 µg/L): 130 | chromosomal aberrations observed in root tip meristem [4]: vagrant chromosome in anaphase and alignment anaphase | Mean % mortality (Daphnia magna; 10 µg/L, 24 h): 15% | Mean mortality (n = 20) (Daphnia magna; 10 µg/L, 24 h): 0.75 ± 0.50 | Mean % mortality (Daphnia magna; 10 µg/L, 48 h): 30% | Mean mortality (n = 20) (Daphnia magna; 10 µg/L, 48 h): 1.50 ± 1.73 | Mean % mortality (Daphnia magna; 100 µg/L, 24 h): 50% | Mean mortality (n = 20) (Daphnia magna; 100 µg/L, 24 h): 2.50 ± 0.58 | Mean % mortality (Daphnia magna; 100 µg/L, 48 h): 95% | Mean mortality (n = 20) (Daphnia magna; 100 µg/L, 48 h): 4.75 ± 0.50
